Experimental data: publication PMC11369174, “Proteome-scale characterisation of motif-based interactome rewiring by disease mutations” (Molecular Systems Biology, 2024)

Experiments:
[1] = target: T1, CLTC NTD (Homo sapiens, UniProt Q00610); experiment: GenVar_HD2 ProP-PD phage selection, CLTC NTD; conditions: bait CLTC NTD; from NGS counts of overlapping wild-type/mutant library peptide pairs; positive = mutation enhances, negative = disrupts binding
T1 sequence (Q00610 1-364): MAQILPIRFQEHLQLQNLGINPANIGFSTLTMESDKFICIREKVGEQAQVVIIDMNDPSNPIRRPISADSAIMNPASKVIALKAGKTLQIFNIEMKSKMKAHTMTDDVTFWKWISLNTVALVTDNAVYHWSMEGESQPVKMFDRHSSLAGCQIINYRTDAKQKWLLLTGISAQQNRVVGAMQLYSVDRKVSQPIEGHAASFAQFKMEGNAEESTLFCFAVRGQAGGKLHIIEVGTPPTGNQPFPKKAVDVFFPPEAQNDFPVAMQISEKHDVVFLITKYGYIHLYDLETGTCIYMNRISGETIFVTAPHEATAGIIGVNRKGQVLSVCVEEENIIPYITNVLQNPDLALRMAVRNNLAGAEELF
Protocol: (§1) Phage display screens were performed according to previous reports (Benz et al, [2022]; Ali et al, [2020]) and for four consecutive selection rounds with five to six replicates per bait protein domain against the […] library.
(§2) On the first day, both bait (15 µg in 100 µL PBS) and control protein domains (GST and MBP; 10 µg in 100 µL PBS) were immobilised on a 96-well MaxiSorb plate (Nunc) overnight in the cold room while shaking. Additionally, a 10 mL culture of Omnimax E. coli bacteria supplemented with 10 µg/mL tetracycline was incubated overnight at 37 °C at 200 rpm.
(§3) First, protein solutions were removed from both control and bait protein domain plates and the wells were blocked with 0.5% BSA in PBS (200 µL/well) for 1 h in the cold room while shaking. After that, three Omnimax E. coli cultures were started supplemented with either 30 µg/mL kanamycin, 100 µg/mL carbenicillin and 10 µg/mL tetracycline and incubated at 37 °C and 200 rpm. The two first cultures served as a means to check for helper phage contamination (kanamycin) and phages with library phagemid contamination (carbenicillin) of the culture used for elution of the phages during selections. The tetracycline Omnimax E. coli culture was grown until OD at 600 nm reached 0.6–0.8. […]

[2] = target: T2, G3BP2 NTF2 (Homo sapiens, UniProt Q9UN86); experiment: GenVar_HD2 ProP-PD phage selection, G3BP2 NTF2; conditions: bait G3BP2 NTF2; from NGS counts of overlapping wild-type/mutant library peptide pairs; positive = mutation enhances, negative = disrupts binding
T2 sequence (Q9UN86 1-139): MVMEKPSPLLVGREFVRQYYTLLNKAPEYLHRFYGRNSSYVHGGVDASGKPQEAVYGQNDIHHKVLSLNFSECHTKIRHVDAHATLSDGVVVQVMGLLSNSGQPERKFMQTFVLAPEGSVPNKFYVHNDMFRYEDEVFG
Protocol: as §1, §2, §3

[3] = target: T3, CASK kinase domain (Homo sapiens, UniProt O14936); experiment: FP displacement assay, CASK kinase domain; conditions: FP displacement of FITC-PER2 (10 nM) complexed with domain (1-2x KD), 50 mM sodium phosphate pH 7.4, 100 mM NaCl, KD from IC50, technical triplets, n.b. = not binding within concentration range used
T3 sequence (O14936 1-340): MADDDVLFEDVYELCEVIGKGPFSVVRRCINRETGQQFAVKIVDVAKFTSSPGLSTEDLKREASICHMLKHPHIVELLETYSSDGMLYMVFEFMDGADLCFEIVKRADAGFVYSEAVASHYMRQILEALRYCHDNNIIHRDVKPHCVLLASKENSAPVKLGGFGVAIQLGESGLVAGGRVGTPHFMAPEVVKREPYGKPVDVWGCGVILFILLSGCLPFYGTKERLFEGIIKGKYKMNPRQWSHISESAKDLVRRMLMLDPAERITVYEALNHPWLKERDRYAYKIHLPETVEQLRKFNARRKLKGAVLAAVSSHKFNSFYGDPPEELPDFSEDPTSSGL
Protocol: (§4) FP experiments were performed, as previously described (Kliche et al, [2021], [2023]), on an iD5 plate reader (Molecular devices) using black half-area non-binding 96-well plates (Corning). In order to calculate the FP signal in millipolarisation (mP), the FITC-labelled peptides were excited at 485 nm and the emitted light was measured at 535 nm in two different angles. For saturation experiments, a dilution series of the respective protein domains was generated (25 µL) and 10 nM fluorescein isothiocyanate (FITC)-labelled peptide (diluted in 50 mM sodium phosphate buffer pH 7.4, 0.05% Tween) were added in an end volume of 50 µL. A control experiment titrating GST was performed for the binding of the NEDD4 WW2 domain, since the GST-tagged construct was used for affinity measurements. For fitting the data, the buffer-corrected reduced values were plotted in GraphPad PRISM against the respective protein concentration and the KD-values were obtained by fitting against the quadratic equation (Gianni et al, [2005]).
(§5) The buffer-corrected reduced values were subsequently plotted against the logarithmic unlabelled peptide concentration to derive the IC50 values by using the sigmoidal dose-response (x is logarithmic) fit in GraphPad PRISM and calculate the KD values as described previously (Nikolovska-Coleska et al, [2004]).

[4] = target: T3, CASK kinase domain; experiment: GenVar_HD2 ProP-PD phage selection, CASK kinase domain; conditions: bait CASK kinase domain; from NGS counts of overlapping wild-type/mutant library peptide pairs; positive = mutation enhances, negative = disrupts binding
Protocol: as §1, §2, §3

[5] = target: T4, GABARAPL1 ATG8 (Homo sapiens, UniProt Q9H0R8); experiment: FP displacement assay, GABARAPL1 ATG8; assay type: binding; conditions: read-out: KD-values [µM] + SEM
T4 sequence (Q9H0R8 2-115): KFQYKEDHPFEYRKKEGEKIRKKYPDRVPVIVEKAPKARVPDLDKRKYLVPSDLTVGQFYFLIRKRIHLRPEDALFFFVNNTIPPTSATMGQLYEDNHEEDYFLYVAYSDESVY
Protocol: (§6) FP experiments were performed, as previously described (Kliche et al, [2021], [2023]), on an iD5 plate reader (Molecular devices) using black half-area non-binding 96-well plates (Corning). In order to calculate the FP signal in millipolarisation (mP), the FITC-labelled peptides were excited at 485 nm and the emitted light was measured at 535 nm in two different angles. For saturation experiments, a dilution series of the respective protein domains was generated (25 µL) and 10 nM fluorescein isothiocyanate (FITC)-labelled peptide (diluted in 50 mM sodium phosphate buffer pH 7.4, 0.05% Tween) were added in an end volume of 50 µL. […] For fitting the data, the buffer-corrected reduced values were plotted in GraphPad PRISM against the respective protein concentration and the KD-values were obtained by fitting against the quadratic equation (Gianni et al, [2005]).
as §5

[6] = target: T5, MAP1LC3B ATG8 (Homo sapiens, UniProt Q9GZQ8); experiment: FP displacement assay, MAP1LC3B ATG8; assay type: binding; conditions: for Kd: read-out: KD-values [µM] + SEM
Protocol: as §4, §5

[7] = target: T6, G3BP1 NTF2 (Homo sapiens, UniProt Q13283); conditions: FP displacement of FITC-N_SARS-CoV-2 (10 nM) complexed with domain (1-2x KD), 50 mM sodium phosphate pH 7.4, KD from IC50, technical triplets, n.b. = not binding within concentration range used
T6 sequence (Q13283 1-139): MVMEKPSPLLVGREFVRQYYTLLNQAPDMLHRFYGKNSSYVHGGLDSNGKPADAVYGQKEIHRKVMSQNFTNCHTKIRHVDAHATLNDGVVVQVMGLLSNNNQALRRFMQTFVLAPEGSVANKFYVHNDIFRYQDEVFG

[8] = target: T6, G3BP1 NTF2; experiment: GenVar_HD2 ProP-PD phage selection, G3BP1 NTF2; conditions: bait G3BP1 NTF2; from NGS counts of overlapping wild-type/mutant library peptide pairs; positive = mutation enhances, negative = disrupts binding
Protocol: as §1, §2, §3

[9] = target: KPNA4 ARM minor (Homo sapiens, UniProt O00629); experiment: FP displacement assay, KPNA4 ARM minor pocket; assay type: binding
KPNA4 ARM minor, sequence (O00629 68-487): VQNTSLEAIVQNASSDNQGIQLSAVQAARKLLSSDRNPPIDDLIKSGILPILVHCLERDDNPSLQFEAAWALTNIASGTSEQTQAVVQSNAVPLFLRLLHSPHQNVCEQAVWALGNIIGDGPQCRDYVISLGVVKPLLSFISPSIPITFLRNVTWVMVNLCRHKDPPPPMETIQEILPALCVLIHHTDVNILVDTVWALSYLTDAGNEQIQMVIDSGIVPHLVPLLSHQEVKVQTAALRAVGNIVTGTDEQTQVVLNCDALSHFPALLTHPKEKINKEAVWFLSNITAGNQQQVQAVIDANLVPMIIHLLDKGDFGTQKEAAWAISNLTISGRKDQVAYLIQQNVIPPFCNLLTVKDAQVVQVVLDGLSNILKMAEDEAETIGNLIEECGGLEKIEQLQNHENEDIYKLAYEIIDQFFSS
Protocol: as §4, §5

[10] = test system: KPNA4 ARM; experiment: GenVar_HD2 ProP-PD phage selection, KPNA4 ARM; assay type: binding, human; conditions: bait KPNA4 ARM; from NGS counts of overlapping wild-type/mutant library peptide pairs; positive = mutation enhances, negative = disrupts binding
[11] = target: KPNA4 ARM major (Homo sapiens, UniProt O00629); experiment: FP displacement assay, KPNA4 ARM major pocket; assay type: binding
KPNA4 ARM major, sequence (O00629 68-487): as above
Protocol: as §4, §5

[12] = target: T7, NEDD4 WW2 (Homo sapiens, UniProt P46934); experiment: FP displacement assay, NEDD4 WW2; assay type: binding; conditions: read-out: KD-values [µM] + SEM
T7 sequence (P46934 765-803 limits assumed): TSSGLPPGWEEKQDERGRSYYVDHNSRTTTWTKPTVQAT
Protocol: For saturation experiments, a dilution series of the respective protein domains was generated (25 µL) and 10 nM fluorescein isothiocyanate (FITC)-labelled peptide (diluted in 50 mM sodium phosphate buffer pH 7.4, 0.05% Tween) were added in an end volume of 50 µL. A control experiment titrating GST was performed for the binding of the NEDD4 WW2 domain, since the GST-tagged construct was used for affinity measurements.
If the raw values indicated a FITC-contamination of the unlabelled peptide, the data was excluded and a new batch of peptide was ordered for remeasuring the affinity.

[13] = target: T7, NEDD4 WW2; experiment: GenVar_HD2 ProP-PD phage selection, NEDD4 WW2; conditions: bait NEDD4 WW2; from NGS counts of overlapping wild-type/mutant library peptide pairs; positive = mutation enhances, negative = disrupts binding
Protocol: as §1, §2, §3

[14] = target: T1, CLTC NTD; experiment: FP displacement assay, CLTC NTD; assay type: binding; conditions: read-out: KD-values [µM] + SEM
Protocol: as §6, §5

[15] = target: T5, MAP1LC3B ATG8; experiment: GenVar_HD2 ProP-PD phage selection, MAP1LC3B ATG8; conditions: bait MAP1LC3B ATG8; from NGS counts of overlapping wild-type/mutant library peptide pairs; positive = mutation enhances, negative = disrupts binding
Protocol: as §1, §2
First, protein solutions were removed from both control and bait protein domain plates and the wells were blocked with 0.5% BSA in PBS (200 µL/well) for 1 h in the cold room while shaking. After that, three Omnimax E. coli cultures were started supplemented with either 30 µg/mL kanamycin, 100 µg/mL carbenicillin and 10 µg/mL tetracycline and incubated at 37 °C and 200 rpm. The two first cultures served as a means to check for helper phage contamination (kanamycin) and phages with library phagemid contamination (carbenicillin) of the culture used for elution of the phages during selections. The tetracycline Omnimax E. coli culture was grown until OD at 600 nm reached 0.6–0.8.
Naïve phage libraries were precipitated (10 µL/well of bait protein domain) by diluting the library tenfold with PBS, adding one-fourth of 20% […] and 400 mM NaCl and incubating the mixture for 15 min on ice. Subsequently, phages were spun down for 15 min at 13,000 × g and resuspended in 0.5% BSA and 0.05% Tween-20 in PBS (100 µL/well). Control domain plates were washed four times with 200 µL 0.05% Tween-20 in PBS, 100 µL of the naïve phage library (10^11 phages/mL) were added to every well and the plates incubated for 1 h in the cold room while shaking. Next, protein bait domain plates were washed four times with 0.05% Tween-20 in PBS and the phage solution from the control protein plate was transferred to the respective wells on the protein bait domain plate. […]

[16] = target: T4, GABARAPL1 ATG8; experiment: GenVar_HD2 ProP-PD phage selection, GABARAPL1 ATG8; conditions: bait GABARAPL1 ATG8; from NGS counts of overlapping wild-type/mutant library peptide pairs; positive = mutation enhances, negative = disrupts binding
Protocol: as §1, §2, §3

[17] = target: T2, G3BP2 NTF2; experiment: FP displacement assay, G3BP2 NTF2; conditions: FP displacement of FITC-N_SARS-CoV-2 (10 nM) complexed with domain (1-2x KD), 50 mM sodium phosphate pH 7.4, KD from IC50, technical triplets, n.b. = not binding within concentration range used
[18] = target: USP7 MATH/TRAF (Homo sapiens, UniProt Q93009); experiment: FP displacement assay, USP7 MATH/TRAF; assay type: binding; conditions: read-out: KD-values [µM] + SEM
USP7 MATH/TRAF, sequence (Q93009 53-206): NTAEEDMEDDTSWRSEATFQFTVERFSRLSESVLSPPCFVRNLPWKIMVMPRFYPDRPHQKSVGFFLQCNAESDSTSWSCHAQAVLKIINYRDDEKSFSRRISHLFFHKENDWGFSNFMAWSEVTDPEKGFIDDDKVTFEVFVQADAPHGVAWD
Protocol: as §6, §5

Compound: Ac-DLLTFGQAQMNFPY-NH2 [BCL11A_44-56 C48F]
- Mutation enrichment score [1]: 12
- Mutation enrichment score [2]: 10

Compound: H3COC-YSGDTSP(R/W)HLSNVSST-NH2 [MAPT_717-731 wild-type, wild-type MAPT peptide, residues 717-731]
- KD-values [µM] + SEM [3]: no binding and n.b.

Compound: CSCC[C@H](NC(C)=O)C(=O)N[C@@H](CO)C(=O)N[C@@H](CC(=O)O)C(=O)N[C@@H](CC(C)C)C(=O)N[C@@H](Cc1c[nH]c2ccccc12)C(=O)N[C@H](C(=O)N1CCC[C@H]1C(=O)N[C@@H](CC(N)=O)C(=O)N[C@@H](CO)C(=O)N[C@@H](C)C(=O)N[C@@H](CO)C(=O)NCC(=O)N[C@@H](CCC(N)=O)C(=O)N[C@@H](CC(=O)O)C(=O)N1CCC[C@H]1C(=O)NCC(N)=O)C(C)C [FANCA_1-16 S4L]
- Mutation enrichment score [4]: 6

Compound: Ac-DKDEWQSLDQNEDAFE-NH2 [BUB1_486-501 wild-type]
- Kd [5]: 5.5 ± 0.7 µM
- Kd [6]: 7 ± 1 µM

Compound: H3COC-MSD(S/L)WVPNSASGQDPG-NH2 [FANCA_1-16 wild-type, wild-type FANCA peptide, residues 1-16]
- KD-values [µM] + SEM [3]: n.b.

Compound: H3COC-QQSYLD(S/F)GIHSGATTT-NH2 [CTNNB1_27-42 wild-type]
- KD-values [µM] + SEM [7]: no binding and n.b.

Compound: Ac-QQSYLDFGIHSGATTT-NH2 [CTNNB1_27-42 S33F]
- Mutation enrichment score [8]: 9

Compound: Ac-PELWVAHRTAQHLSAT-NH2 [ZNF526_152-167 L160T]
- Kd ([9]; read-out: KD-values [µM] + SEM): 395 ± 10 µM
- Mutation enrichment score [10]: −6.4
- KD-values [µM] + SEM ([11]; major pocket, FP displacement of FITC-MYC (10 nM) complexed with domain (1-2x KD), 50 mM sodium phosphate pH 7.4, KD from IC50, ± SEM, n.b. = not binding within concentration range used): n.b.

Compound: Ac-PIPGTPPRNYDSLRLQ-NH2 [SCNN1B_611-626 P618R]
- Kd [12]: 603 ± 73 µM
- Mutation enrichment score [13]: −16

Compound: Ac-YSGDTSPWHLSNVSST-NH2 [MAPT_717-731 R723W]
- Mutation enrichment score [4]: 12

Compound: Ac-SGNLIDLYGNQGLPY-NH2 [MITF_258-271 wild-type]
- Kd [14]: 191 ± 27 µM

Compound: Ac-PIPGTRPPNYDSLRLQ-NH2 [SCNN1B_611-626 P616R]
- Kd [12]: 80 ± 7 µM
- Mutation enrichment score [13]: −12

Compound: Ac-YLLDGPPNPERAKLSS-NH2 [CREBBP_5-19 K13E]
- KD-values [µM] + SEM ([9]; minor pocket, FP displacement of FITC-NCOR2 (10 nM) complexed with domain (1-2x KD), 50 mM sodium phosphate pH 7.4, KD from IC50, technical triplets, ± SEM, n.b. = not binding within concentration range used): n.b.
- Mutation enrichment score [10]: −6
- Kd ([11]; read-out: KD-values [µM] + SEM): 860 ± 20 µM

Compound: Ac-DKDEWQFLDQNEDAFE-NH2 [BUB1_486-501 S492F]
- Kd [5]: < 0.3 µM
- Mutation enrichment score [15]: 12
- Mutation enrichment score [16]: 16
- increase in affinity, mutant vs wild-type peptide ([6]; from FP displacement KD values, MAP1LC3B ATG8): four-fold increase in affinity
- Kd [6]: 1.6 ± 0.1 µM

Compound: Ac-DLLTCGQAQMNFPY-NH2 [BCL11A_44-56 wild-type]
- KD-values [µM] + SEM [17]: n.b.

Compound: Ac-SGNLIDLCGNQGLPY-NH2 [MITF_258-271 Y265C]
- Mutation enrichment score [1]: −9.8
- Kd [14]: 206 ± 13 µM

Compound: CC(=O)N[C@@H](CCC(=O)O)C(=O)N[C@@H](Cc1ccccc1)C(=O)N1CCC[C@H]1C(=O)N[C@H](C(=O)N1CCC[C@H]1C(=O)N[C@@H](Cc1ccccc1)C(=O)N[C@@H](Cc1ccccc1)C(=O)NCC(=O)N[C@@H](CO)C(=O)N[C@@H](CC(N)=O)C(=O)N[C@@H](CC(=O)O)C(=O)N[C@@H](Cc1ccc(O)cc1)C(=O)N[C@@H](CC(C)C)C(=O)N[C@@H](Cc1c[nH]c2ccccc12)C(=O)N[C@H](C(=O)N[C@@H](Cc1c[nH]cn1)C(N)=O)[C@@H](C)O)C(C)C [NSD1_1793-1808 L1797P]
- Mutation enrichment score [8]: −7.4

Compound: Ac-YISSSSTSTMPNSSQSS-NH2 [CHK2_38-53 wild-type]
- Kd [18]: 3.1 ± 0.2 µM
